Data set [1] concerns the target T1, NMDA glutamate receptors NR1/NR2B encoded by the human GRIN1 and GRIN2B genes (Homo sapiens, UniProt Q05586+Q13224).
T1 construct: expressed in transfected cells
Briefly: IonWorks Barracuda automated patch clamp, inhibition of NR1/NR2B receptors in HEK293 cells. In kind it is cell-based. Conditions: for IC50: co-application with EC50 L-glutamate, −40 mV, 8-point concentration-response; for Effect on NR1/NR2B glutamate receptors (in words): patch clamp. The procedure:
Compounds were tested for inhibition of NMDA receptors using NMDA glutamate receptors NR1/NR2B encoded by the human GRIN1 and GRIN2B genes, expressed in HEK293 cells (originally from ATCC, Manassas, VA). Cells were maintained in tissue culture incubators, and stocks were maintained in cryogenic storage. Cells used for electrophysiology were plated in 150-mm plastic culture dishes. HEK293 cells were transfected with the appropriate ion channel or receptor cDNA(s) encoding NR1 and NR2B. Stable transfectants were selected using the G418 and Zeocin™-resistance genes incorporated into the expression plasmid. Selection pressure was maintained with G418 and Zeocin™ in the culture medium. Cells were cultured in Dulbecco's Modified Eagle Medium/Nutrient Mixture F-12 (D-MEM/F-12) supplemented with 10% fetal bovine serum, 100 U/mL penicillin G sodium, 100 μg/mL streptomycin sulfate, 100 μg/mL Zeocin™, 5 μg/mL blasticidin, and 500 μg/mL G418.
Test compounds were evaluated in 8-point concentration-response format (8 replicate wells/concentration). All test and control solutions contained 0.3% DMSO. The test article formulations were loaded in a 384-well plate using an automated liquid handling system (SciClone ALH3000, Caliper LifeScienses).
The effects of the test compounds were evaluated using the IonWorks® Barracuda™ Automated Patch Clamp System. Intracellular solution contained 50 mM CsCl, 90 mM CsF, 2 mM MgCl2, 5 mM EGTA, and 10 mM HEPES, pH 7.2. This solution was prepared in batches and stored refrigerated. In preparation for a recording session, the intracellular solution was loaded into the intracellular compartment of the PPC planar electrode. Extracellular solution (137 mM NaCl; 1.0 mM KCl; 5 mM CaCl2); 10 mM HEPES; 10 mM glucose; pH 7.4. Patch clamp measurements were made with a holding potential of −70 mV, and the potential during compound application was −40 mV. Extracellular buffer was loaded into the PPC plate wells (11 μL per well). Cell suspension was then pipetted into the wells (9 μL per well) of the PPC planar electrode. Whole-cell recording configuration was established via patch perforation with membrane currents recorded by on-board patch clamp amplifiers. […] The application consisted of two additions of 20 μL test solution containing antagonists at 10 μL/s (2 second total application time). First addition of 2× concentrated articles were preapplied for 5 minutes before the second addition of 1× concentrated articles. Data acquisition was performed via the IonWorks® Barracuda™ software, and data was analyzed using Microsoft Excel (Microsoft Corp., Redmond, WA). Concentration-response data was fitted to a Hill equation of the following form: RESPONSE=Base+[(Max−Base)/(1+(xhalf/x)^rate)] where Base is the response at low concentrations of test article, Max is the maximum response at high concentrations, xhalf is the EC50, or IC50, the concentration of test article producing either half-maximal activation or inhibition, and rate is the Hill coefficient. Nonlinear least squares fits were made assuming a simple binding model. Fits were weighted by the standard deviation. No assumptions about the fit parameters were made; the fit parameters were determined by the algorithm.

For data set [2] the following is noted: 7 days of infusion, cited from earlier work.
Setting [3] is: read-out: Steady state current IC50.

This is an account of results in US12071392B2, “Aminoadamantyl nitrate compounds and their use to treat CNS disorders” (Panorama Research, Inc., priority 2017, dated 2024).

Like-named read-outs stand apart in the source and are kept apart here.

T1 sequence (Q13224 27-1484, other chains not shown): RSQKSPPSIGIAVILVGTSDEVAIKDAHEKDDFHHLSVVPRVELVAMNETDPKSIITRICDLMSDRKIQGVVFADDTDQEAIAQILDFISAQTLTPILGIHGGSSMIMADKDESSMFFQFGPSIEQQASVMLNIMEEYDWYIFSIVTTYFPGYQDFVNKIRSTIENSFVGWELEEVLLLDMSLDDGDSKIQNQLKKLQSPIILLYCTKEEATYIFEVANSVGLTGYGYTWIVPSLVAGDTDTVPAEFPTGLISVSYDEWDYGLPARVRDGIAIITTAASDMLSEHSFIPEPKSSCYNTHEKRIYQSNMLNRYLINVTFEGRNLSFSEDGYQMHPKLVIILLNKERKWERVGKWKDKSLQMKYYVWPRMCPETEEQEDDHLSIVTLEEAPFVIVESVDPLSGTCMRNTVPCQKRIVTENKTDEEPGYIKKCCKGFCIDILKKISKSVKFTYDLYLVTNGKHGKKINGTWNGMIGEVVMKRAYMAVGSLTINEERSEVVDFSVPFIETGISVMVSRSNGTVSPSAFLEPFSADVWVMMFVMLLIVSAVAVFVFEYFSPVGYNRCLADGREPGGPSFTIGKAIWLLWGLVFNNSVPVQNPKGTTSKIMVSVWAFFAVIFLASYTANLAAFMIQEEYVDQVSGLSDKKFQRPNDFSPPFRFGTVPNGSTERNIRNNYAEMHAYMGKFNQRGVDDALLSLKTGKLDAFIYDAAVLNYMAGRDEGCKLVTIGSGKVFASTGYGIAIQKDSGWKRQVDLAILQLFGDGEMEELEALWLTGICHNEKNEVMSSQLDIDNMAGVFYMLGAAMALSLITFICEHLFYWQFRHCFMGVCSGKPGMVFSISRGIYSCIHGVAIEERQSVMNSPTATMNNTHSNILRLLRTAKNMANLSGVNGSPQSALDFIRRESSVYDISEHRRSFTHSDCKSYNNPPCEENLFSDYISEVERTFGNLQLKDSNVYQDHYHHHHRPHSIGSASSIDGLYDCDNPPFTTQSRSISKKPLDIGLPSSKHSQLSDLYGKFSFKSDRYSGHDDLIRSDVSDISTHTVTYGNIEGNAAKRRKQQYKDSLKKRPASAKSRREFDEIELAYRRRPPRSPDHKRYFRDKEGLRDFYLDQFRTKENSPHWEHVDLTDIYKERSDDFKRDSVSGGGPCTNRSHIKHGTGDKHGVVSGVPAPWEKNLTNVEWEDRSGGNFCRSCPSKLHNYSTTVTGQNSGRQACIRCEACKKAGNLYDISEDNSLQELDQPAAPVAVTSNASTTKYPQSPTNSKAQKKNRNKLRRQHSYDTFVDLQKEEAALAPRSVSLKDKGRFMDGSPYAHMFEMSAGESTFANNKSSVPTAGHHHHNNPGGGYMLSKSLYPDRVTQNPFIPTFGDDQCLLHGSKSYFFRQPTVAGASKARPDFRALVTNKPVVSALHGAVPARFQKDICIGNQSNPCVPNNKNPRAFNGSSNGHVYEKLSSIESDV

By IC50 is commonly meant the concentration needed to halve the response being measured. Consider `CC12CC3(C)CC(CN)(C1)CC(CO[N+](=O)[O-])(C2)C3` [Cmpd 1], for which the IC50 in data set [1] (read-out: Peak current IC50) amounted to 4.59 µM; in data set [1] (setting [3]), 2.62 µM.

In the case of `NCC1(c2cccc(O[N+](=O)[O-])c2)C2CC3CC(C2)CC1C3` (stereo not drawn) [Cmpd 2], the values for the IC50 in data set [1] (read-out: Peak current IC50) and in data set [1] (setting [3]) were 73.2 µM and 47.4 µM, respectively.

`CCC(O[N+](=O)[O-])C12CC3(C)CC(C)(CC(CCN)(C3)C1)C2` (stereo not drawn) [Cmpd 3]: the IC50 worked out at 8.01 µM in data set [1] (read-out: Peak current IC50) and 5.08 µM in data set [1] (setting [3]).

Consider `NCC1(c2cccc(OCCCO[N+](=O)[O-])c2)C2CC3CC(C2)CC1C3` (stereo not drawn) [Cmpd 4], for which the IC50 was 35.2 µM in data set [1] (read-out: Peak current IC50) and 34.2 µM in data set [1] (setting [3]).

On to `CC12CC3CC(CN)(C1)CC(O[N+](=O)[O-])(C3)C2` (stereo not drawn) [Cmpd 5], for which the 50% inhibitory concentration (IC50) in data set [1] (read-out: Peak current IC50) stood at 11.2 µM; in data set [1] (setting [3]), 7.18 µM.

`N[C@@H](CCC(=O)O)C(=O)O` [Glutamate CRC, L-glutamate, reference compound]: the “Effect on NR1/NR2B glutamate receptors (in words)” value in data set [1] was “stimulated the receptors”.

Consider `CC12CC3CC(C)(C1)CC(N)(C3)C2.Cl` [Memantine-HCl, Memantine, reference compound], for which the “Effect on NR1/NR2B glutamate receptors (in words)” value in data set [1] is given as “produced inhibition of the receptors”. Besides, the “whole brain concentration higher than free concentration in serum” value in data set [2] (20 mg/kg/day) is recorded as 44 fold.

For the molecule `CCC12CC3CC(N)(C1)CC(CO[N+](=O)[O-])(C3)C2` (stereo not drawn) [NM-004, reference compound], the IC50 in data set [1] (read-out: Peak current IC50) amounted to 25.9 µM; in data set [1] (setting [3]) it was 21 µM.

For `CCC12CC3(N)CC(CC)(C1)CC(O[N+](=O)[O-])(C3)C2` [YQW-036, Nitrosynapsin, reference compound], the figures for the concentration for half-maximal inhibition (IC50) in data set [1] (read-out: Peak current IC50) and in data set [1] (setting [3]) were 10.1 µM and 6.8 µM, respectively.

`NC12CC3CC(CC(C3)C1)C2` [amantadine]: the “whole brain concentration higher than free concentration in serum” value in data set [2] (100 mg/kg/day) is listed as 16 fold.
